Laboratory results from ChEMBL document CHEMBL5729070, “Substituted pyrrolo[1,2-a]pyrazines and pyrrolo[1,2-a][1,4]diazepines as TREX1 inhibitors” (2022).

Experiment: Exonuclease Assay: To evaluate the effect of compounds on TREX1 activity, test compounds were serially diluted (11-point, 3-fold) from 10 mM stock solutions and delivered to 384-well low-volume assay plates in 80 nL DMSO using an acoustic dispenser. Next, 4 μL of human TREX1 (0.5 nM), or murine TREX1 (1 nM), diluted in assay buffer (20 mM Tris pH 7.5, 5 mM MgCl2, 100 μg/mL BSA, 0.002% Triton X-100, 2 mM DTT), was added to the assay plate. After incubating for 30 minutes, 4 μL of labeled DNA oligonucleotide (500 nM) in assay buffer was added to initiate TREX1 exonuclease activity. The reaction was allowed to proceed for 45 minutes at room temperature prior to the addition of 4 μL of 150 mM EDTA to halt TREX1 activity. Assay plates were equilibrated for an additional 30 minutes and read on an EnVision Plate Reader (Perkin Elmer) to measure fluorescence emission at 535 nm following excitation at 485 nm. Fluorescence was plotted as a function of log molar compound concentration and fit to four-parameter dose-response equation to determine compound IC50.

| Compound | IC50 |
| --- | --- |
| CC(C)C[C@H](C(=O)NCc1ccc(Cl)c(Cl)c1)N1CCC(C=[S+](C)([O-])c2ccccc2)N2C[C@H](N)C[C@H]2C1=O (some centres not stated) | < 1 µM |
| CC(C)C[C@H](NC(=O)Cc1ccc(Cl)c(Cl)c1)N1CCC(CCc2ccccc2)N2C[C@H](N)C[C@H]2C1=O (some centres not stated) | in the range around 5.5 µM |
